Reference: paper PMC8911181, “A Novel CDK4/6 and PARP Dual Inhibitor ZC-22 Effectively Suppresses Tumor Growth and Improves the Response to Cisplatin Treatment in Breast and Ovarian Cancer” (International Journal of Molecular Sciences, 2022)

Assays:
OVCAR5 xenograft tumors = experiment: Ovarian cancer xenograft mouse model, tumor growth; type: in vivo, mice; conditions: 1.5 mg/kg cisplatin and 50 mg/kg ZC-22 ip
Protocol: Six-week-old female athymic nude mice (Homozygous) were purchase from Vital River Laboratories (Beijing, China) and maintained under the guidelines for laboratory animals of Nankai university (NKU). Mice were injected subcutaneously with 2 × 10^6 MDA-MB-231 or 8 × 10^6 OVCAR5 cells. When tumors were 50–100 mm^3 in size, the mice were randomly grouped and treated intraperitoneal (i.p.) with 50 mg/kg of Olaparib, 50 mg/kg of LY2835219, 50 mg/kg of ZC-22, or 1.5 mg/kg of cisplatin alone or in combinations or with the vehicle (PBS containing 10% DMSO and 10% 2-hydroxy-propyl-β-cyclodextrin) every 2 days. Tumor volume was measured every 3–4 days, which was calculated as Length × Width^2/2. At the end of the study, tumor and major organ tissues were harvested by surgery. For histopathological analysis, tissue samples were washed with PBS, fixed in 4% paraformaldehyde (PFA), paraffin-embedded, and sectioned into 7 μm thickness. […]
Figure 7 ZC-22 increases the efficacy of cisplatin treatment in ovarian cancer cells in vivo. […] Tumor volumes were measured every 2–3 days. […] (B,C) Pictures (B) and quantification of the size (C) of the OVCAR5 xenograft tumors at the end points. […] (D,E) Representative pictures (D) and quantification of percentage (E) of Ki67 and γH2A.X-positive cells in immunohistochemical staining of the OVCAR5 xenograft tumor tissues. […]

[1] = system: breast and ovarian cancer cells; experiment: CCK-8 cell proliferation/viability at fixed concentration; type: cell-based, human; conditions: 48 or 72 h
Protocol: Cell viability assay was performed as described before. Briefly, 2500/well of breast or ovarian cancer cells were seeded into a 96-well plate; grown overnight; treated with indicated concentration of Olaparib, LY2835219, ZC22, LP-1, GC-24, or cisplatin alone or together for an indicated amount of time; and then incubated with Cell Counting kit-8 (CCK-8) substrate (Dojindo, Kumamoto, Kyushu Island, Japan) for 1–2 h at 37 °C. Cell viability was calculated by the absorbance at 450 nm measured by the GloMax Explorer (Promega, Madison, WI, USA). Cells without treatment were set as 100%, and medium control (no cells) was set as 0%.
Figure 2 ZC-22 suppresses proliferation of breast and ovarian cancer cells. (A) IC50 of ZC-22, Olaparib, and LY2835219 (Abemaciclib) in breast and ovarian cancer cells. […] Cell proliferation was analyzed by CCK-8 assays. […] Cell proliferation assay was analyzed by CCK-8 assays. […]
Figure 5 ZC-22 increases the sensitivity of breast and ovarian cancer cells to cisplatin. […] Representative pictures of EdU staining are shown in the left panels, and quantification of percentage of EdU-positive cells was presented in the bar graphs on the right, n = 3. […] (D) Representative pictures (left) and quantification of percentage (right) of γH2A.X-positive cells in MDA-MB-231 (top panels) and OVCAR5 (bottom panels) cells treated with DDP alone or together with OLA or ZC-22 for 24 h, n = 3. […]

With `Cc1nc2c(F)cc(-c3nc(Nc4ccc(N5CCN(C(=O)c6cc(Cc7n[nH]c(=O)c8ccccc78)ccc6F)CC5)cn4)ncc3F)cc2n1C(C)C` [ZC-22, 4-(4-fluoro-3-(4-(6-((5-fluoro-4-(4-fluoro-1-isopropyl-2-methyl-1H-benzo[d]imidazole-6-yl)pyrimidin-2-yl)amino)pyridin-3-yl)piperazine-1-carbonyl)benzyl)phthalazin-1(2H)-one] the “sensitization to cisplatin treatment (tumor growth)” value (OVCAR5 xenograft tumors) was “significantly sensitized ovarian cancer cells to cisplatin treatment”, the “growth inhibition compared with Olaparib and Abemaciclib alone and combined” value ([1]; MDA-MB-231 2 μM, SUM-159, OVCAR5, SKOV3 0.5 μM) was “better anti-tumor efficacy than the Olaparib and Abemaciclib monotherapy, and the combination therapy” and the “sensitization of cells to cisplatin (cell viability)” value ([1]; cisplatin 2.5 μM (SKOV3 5 μM) together with 2 μM or 0.5 μM compound) was “greatly sensitized breast and ovarian cancer cells to cisplatin”.
